Experimental data: patent publication EP2910557A1, “Enantiopure tetrasubstituted pyrrolidines as scaffolds for proteasome inhibitors and medicinal applications thereof” (Ikerchem, S.L., priority 2014, dated 2015)

What was measured:
[1] = target: T1, Human erythrocyte 20S proteasome (Homo sapiens, UniProt P28074); experiment: In vitro enzymatic assay of proteasome inhibitory activity (Suc-Leu-Leu-Val-Tyr-AMC substrate); assay type: biochemical; conditions: for inhibition at 0.05 µM: Concentration 50 nM; for IC50: human erythrocyte 20S proteasome, 10 µM Suc-Leu-Leu-Val-Tyr-AMC, 37°C
T1 construct: Enzyme: Human erythrocyte 20S proteasome; from tissue; host or cells: human erythrocytes
Description: Example 20: In vitro enzymatic assay of proteasome inhibitory activity.
Substrate: Suc-Leu-Leu-Val-Tyr-AMC
Assay buffer: 250 mM HEPES, pH 7.5, 0.5 mM EDTA, 0.03% SDS, 0.05% Igepal CA-630.
Enzyme: Human erythrocyte 20S proteasome
In vitro proteasome inhibitory activity of the compounds of the invention is evaluated by spectrofluorimetric quantitation of AMC. Stock solutions of compounds of the invention are prepared in dimethyl sulphoxide (DMSO). Test compound and/or vehicle is preincubated with […] enzyme (human erythrocyte 20S proteasome) in modified HEPES buffer pH 7.5 and 1% final concentration of DMSO for 15 minutes at 37°C. The reaction is initiated by addition of 10 µM Suc-Leu-Leu-Val-Tyr-AMC for another 30 minutes incubation period at 37°C. Determination of the release of AMC is read spectrophotometrically (excitation, 380 nm; emission, 460 nm). IC50 values are determined by a non-linear, least squares regression analysis using MathlQTM (ID Business Solutions Ltd., UK).

A549 = experiment: Cancer cell growth inhibition, 72 h treatment; assay type: cell-based; conditions: Homo sapiens, Lung cancer A549, Hexosaminidase assay (*)
Description: (§1) Cell culture-based assays were used to evaluate the ability of compounds of the invention to inhibit cancer cell growth.
(§2) Cells were obtained from the American Type Culture Collection (ATCC) and the European Collection of Cell Cultures. Cells were thawed in their appropriate media plus supplements (see table below). Cells were passaged at confluence by washing once in HBSS cation-free followed by a 3 minutes incubation with trypsin ([0.5 µg/ml]/EDTA [0.2 µg/ml]) (Gibco-BRL, 15400054) solution in HBSS at 37°C (except non-adherent cell lines - hematologic), and transferred to their appropriate media plus supplements. Prior to seeding at defined cell concentration, cells were recovered in medium, centrifuged, taken up in medium and counted.
(§3) All treatments were performed in triplicate. Experiments were carried out in 96-well cell culture plates (Cultek) and the cell lines seeded at the density mentioned in the table above and cultured at 37°C with 5% CO2. After 24h, media were supplemented by 100 µl/well of diluted test compound at variable final concentrations and incubated for 72 hours. Then, AlamarBlue® Reagent (Biosource DAL1100) was added to each well and incubated at 37°C for 4 hours. Relative fluorescent intensity that correlates with the number of living cells was read in a Cytofluor plate reader (Millipore) at 535/590 nm (Excitation/emission). After reading the AlamarBlue® signal, the hexosaminidase activitity was measured according to the following protocol: medium was removed and cells were washed once with PBS. 60 µl of substrate solution (p-nitrophenol-N-acetyl-beta-D-glucosaminide 7.5 mM [Sigma N-9376], sodium citrate 0.1 M, pH 5.0, 0.25% Triton X-1 00) was added to each well and incubated at 37°C for 1-2 hours; after this incubation time, a bright yellow colour appears; then, plates could be developed by adding 90 µl of developer solution (Glycine 50 mM, pH 10.4; EDTA 5 mM), and absorbance was recorded at 405 nm.
(§4) Note: In all cases assays were performed in Alamar Blue with the exception of those indicated (* = Hexosaminidase assay)

CCRF-CEM = experiment: Cancer cell growth inhibition, 72 h treatment; assay type: cell-based; conditions: Homo sapiens, Hematologic CCRF-CEM, Alamar Blue
Description: as §1, §2, §3, §4

DU-145 = experiment: Cancer cell growth inhibition, 72 h treatment; assay type: cell-based; conditions: Homo sapiens, Prostate cancer DU-145, Alamar Blue
Description: as §1, §2, §3, §4

Daoy = experiment: Cancer cell growth inhibition, 72 h treatment; assay type: cell-based; conditions: Homo sapiens, Brain Daoy, Alamar Blue
Description: as §1, §2, §3, §4

HCT-116 = experiment: Cancer cell growth inhibition, 72 h treatment; assay type: cell-based; conditions: Homo sapiens, Colon cancer HCT-116, Alamar Blue
Description: as §1, §2, §3, §4

HT-1080 = experiment: Cancer cell growth inhibition, 72 h treatment; assay type: cell-based; conditions: Homo sapiens, Fibrosarcoma HT-1080, Alamar Blue
Description: as §1, §2, §3, §4

HepG2 = experiment: Cancer cell growth inhibition, 72 h treatment; assay type: cell-based; conditions: Homo sapiens, Liver cancer HepG2, Alamar Blue
Description: as §1, §2, §3, §4

Jurkat = experiment: Cancer cell growth inhibition, 72 h treatment; assay type: cell-based; conditions: Homo sapiens, Hematologic Jurkat, Alamar Blue
Description: as §1, §2, §3, §4

K562 = experiment: Cancer cell growth inhibition, 72 h treatment; assay type: cell-based; conditions: Homo sapiens, Hematologic K562, Alamar Blue
Description: as §1, §2, §3, §4

LS174T = experiment: Cancer cell growth inhibition, 72 h treatment; assay type: cell-based; conditions: Homo sapiens, Colon cancer LS174T, Alamar Blue
Description: as §1, §2, §3, §4

MCF-7 = experiment: Cancer cell growth inhibition, 72 h treatment; assay type: cell-based; conditions: Homo sapiens, MCF7, Breast cancer MCF-7, Alamar Blue
Description: as §1, §2, §3, §4

MDA-MB-231 = experiment: Cancer cell growth inhibition, 72 h treatment; assay type: cell-based; conditions: Homo sapiens, Breast cancer MDA-MB-231, Alamar Blue
Description: as §1, §2, §3, §4

MDA-MB-468 = experiment: Cancer cell growth inhibition, 72 h treatment; assay type: cell-based; conditions: Homo sapiens, Breast cancer MDA-MB-468, Alamar Blue
Description: as §1, §2, §3, §4

MIA PaCa-2 = experiment: Cancer cell growth inhibition, 72 h treatment; assay type: cell-based; conditions: Homo sapiens
Description: as §1, §2, §3, §4

NCI-H1650 = experiment: Cancer cell growth inhibition, 72 h treatment; assay type: cell-based; conditions: Homo sapiens
Description: as §1, §2, §3, §4

NCI-H1975 = experiment: Cancer cell growth inhibition, 72 h treatment; assay type: cell-based; conditions: Homo sapiens
Description: as §1, §2, §3, §4

OVCAR-3 = experiment: Cancer cell growth inhibition, 72 h treatment; assay type: cell-based; conditions: Homo sapiens
Description: as §1, §2, §3, §4

RPMI-8226 = experiment: Cancer cell growth inhibition, 72 h treatment; assay type: cell-based; conditions: Homo sapiens, Multiple mieloma RPMI-8226, Alamar Blue
Description: as §1, §2, §3, §4

SK-HEP-1 = experiment: Cancer cell growth inhibition, 72 h treatment; assay type: cell-based; conditions: Homo sapiens, SK-HEP1, Liver cancer SK-HEP-1, Alamar Blue
Description: as §1, §2, §3, §4

SK-OV-3 = experiment: Cancer cell growth inhibition, 72 h treatment; assay type: cell-based; conditions: Homo sapiens, Ovarian cancer SK-OV-3, Alamar Blue
Description: as §1, §2, §3, §4

SW480 = experiment: Cancer cell growth inhibition, 72 h treatment; assay type: cell-based; conditions: Homo sapiens
Description: as §1, §2, §3, §4

U-373 MG = experiment: Cancer cell growth inhibition, 72 h treatment; assay type: cell-based; conditions: Homo sapiens, U373 MG, Brain U-373 MG
Description: as §1, §2, §3, §4

U-87 MG = experiment: Cancer cell growth inhibition, 72 h treatment; assay type: cell-based; conditions: Homo sapiens, Brain U-87 MG, Hexosaminidase assay (*)
Description: as §1, §2, §3, §4

[2] = Pancreatic cancer MIA PaCa-2, Alamar Blue
[3] = Lung cancer NCI-H1650, Hexosaminidase assay (*)
[4] = Lung cancer NCI-H1975, Hexosaminidase assay (*)
[5] = Ovarian cancer OVCAR-3, Hexosaminidase assay (*)
[6] = Colon cancer SW480, Hexosaminidase assay (*)

SMILES | inhibition at 0.05 µM [1] | IC50 [1] | EC50 (A549) | EC50 (CCRF-CEM) | EC50 (DU-145) | EC50 (Daoy) | EC50 (HCT-116) | EC50 (HT-1080) | EC50 (HepG2) | EC50 (Jurkat) | EC50 (K562) | EC50 (LS174T) | EC50 (MCF-7) | EC50 (MDA-MB-231) | EC50 (MDA-MB-468) | EC50 (MIA PaCa-2; [2]) | EC50 (RPMI-8226) | EC50 (SK-HEP-1) | EC50 (SK-OV-3) | EC50 (U-87 MG) | further results
CC(C)C[C@H](NC(=O)[C@@H]1N[C@H](c2ccccc2)[C@@H]([N+](=O)[O-])[C@@H]1c1cccs1)B(O)O [Example 10, (R)-3-methyl-1-((2R,3R,4S,5R)-4-nitro-5-phenyl-3-(thiophen-2-yl)pyrrolidine-2-carboxamido)butylboronic acid] | 79% | 12 nM | 2600 nM | 170 nM | 910 nM | 780 nM | 640 nM | 1400 nM | 560 nM | 80 nM | 1200 nM | 140 nM | 490 nM | 2800 nM | 320 nM | 2400 nM | 60 nM | 490 nM | 1300 nM | 500 nM | EC50 (NCI-H1650; [3]): 1800 nM; EC50 (NCI-H1975; [4]): 1100 nM; EC50 (OVCAR-3; [5]): 860 nM; EC50 (SW480; [6]): 2300 nM; EC50 (U-373 MG; Hexosaminidase assay (*)): 2800 nM
CC(C)C[C@H](NC(=O)[C@@H]1N[C@H](c2ccccc2)[C@@H]([N+](=O)[O-])[C@@H]1c1ccco1)B(O)O [Example 11, (R)-1-((2R,3R,4S,5R)-3-(furan-2-yl)-4-nitro-5-phenylpyrrolidine-2-carboxamido)-3-methylbutylboronic acid] | 81% | 7.55 nM | 1300 nM | 52 nM | 570 nM | 290 nM | 280 nM | 890 nM | 220 nM | 40 nM | 1000 nM | 20 nM | 280 nM | 1100 nM | 120 nM |  | 60 nM | 7 nM | 330 nM | 890 nM | EC50 (MIA PaCa-2; Pancreatic cancer MIA PaCa-2, Hexosaminidase assay (*)): 850 nM; EC50 (NCI-H1650; [3]): 1200 nM; EC50 (NCI-H1975; [4]): 840 nM; EC50 (OVCAR-3; [5]): 280 nM; EC50 (SW480; [6]): 1100 nM; EC50 (U-373 MG; Hexosaminidase assay (*)): 1100 nM
CC(C)C[C@H](NC(=O)[C@@H]1CCCN1)B(O)O [MG-319, {(R)-3-methyl-1-[(S)-pyrrolidine-2-carboxamido]butyl}boronic acid, reference compound] |  |  |  | 4500 nM | 58000 nM | 41000 nM | 1800 nM | 8900 nM | 8100 nM | 4700 nM | 19000 nM | 5900 nM | 30000 nM | 18000 nM | 18000 nM | 22000 nM | 4800 nM | 4200 nM | 16000 nM | 25000 nM | inhibition at 0.5 µM ([1]; Concentration 500 nM): 25%; EC50 (NCI-H1650; Lung cancer NCI-H1650, Alamar Blue): 14000 nM; EC50 (NCI-H1975; Lung cancer NCI-H1975, Alamar Blue): 47000 nM; EC50 (OVCAR-3; Ovarian cancer OVCAR-3, Alamar Blue): 6900 nM; EC50 (SW480; Colon cancer SW480, Alamar Blue): 8800 nM; EC50 (U-373 MG; Alamar Blue): 92000 nM
